What all share (format): in vivo
Data set [1] relates to peripheral serotonin. As to the kind of experiment: Peripheral serotonin levels in wild-type mice (Example 11). The note with it: 5 mice per compound. The procedure:
Serotonin serum levels were quantified using immunoassay kits from Fitzgerald (Serotonin) and serotonin levels in the different regions of the brain were quantified by HPLC method as described previously (Mann et al., 1992, Arch. Gen. Psychiatry 49:442-446).
The following three compounds were tested for their ability to effect peripheral serotonin levels in wild-type mice:
Also tested as a negative control was vehicle alone. Each compound as well as vehicle was administered to 5 mice and the resulting peripheral serotonin levels were as follows: […]

Data set [2] has as its system serum serotonin. As to the kind of experiment: Serum serotonin levels in WT mice fed LP-533,401 (dose response). Here is the method: This decrease in serum serotonin levels reached 70% of control values when using 250 mg/kg of the compound while no change in brain serotonin content was observed (FIG. 15). […] Ovariectomized rodents present, as post-menopausal women do (Rodan & Martin, 2000, Science 289:1508-1514), a marked increase in bone resorption not compensated by a similar increase in bone formation.
Blood samples were collected from mice and rats through cardiac puncture under isoflurane anesthesia, kept on ice for 5 min, and centrifuged at 13,000 rpm for 10 min at 4° C. Serum samples were stored at −80° C. until hormonal analyses were performed. Serum serotonin levels were quantified by ELISA (Serotonin kit, Fitzgerald) while serotonin levels in brain regions were quantified by HPLC as described previously (Mann et al., 1992, Arch. Gen. Psychiatry 49:442-446). Serum levels of total deoxypyridinoline (DPD) cross-links was measured using the Merta tDPD kit (Quidel corp. Sandiago, Calif.) and Osteocalcin using Rat and Mouse Ocn IRMA kit.

Data set [3] deals with serum serotonin. As to the kind of experiment: Serum serotonin levels in ovariectomized mice. The note with it: OVX mice. Here is the method: (§1) Six-week-old wild-type virgin female mice were purchased from the Jackson Laboratories and subjected to either bilateral ovariectomy or a sham operation after a few days of acclimatization to the animal facility post-arrival. Ovariectomy was performed under isofluorane anesthesia through dorsal, subrenal incision. In the first experiment, mice were treated from day 1 post-ovariectomy for 4 weeks with LP-533,401 (1, 10, 100 or 250 mg/kg/day) or vehicle. In the second experiment, mice were treated for 4 weeks from 2 to 6-weeks post-ovariectomy with LP-533,401 (250 mg/kg/day) or vehicle. In the third set of experiments, mice were treated for 6 weeks from 6 to 12-weeks post-ovariectomy with LP-533,401 (250 mg/kg/day) or vehicle. […]
(§2) Blood samples were collected from mice and rats through cardiac puncture under isoflurane anesthesia, kept on ice for 5 min, and centrifuged at 13,000 rpm for 10 min at 4° C. […] Serum serotonin levels were quantified by ELISA (Serotonin kit, Fitzgerald) while serotonin levels in brain regions were quantified by HPLC as described previously (Mann et al., 1992, Arch. Gen. Psychiatry 49:442-446). Serum levels of total deoxypyridinoline (DPD) cross-links was measured using the Merta tDPD kit (Quidel corp. Sandiago, Calif.) and Osteocalcin using Rat and Mouse Ocn IRMA kit.

In data set [4] the test system is brain serotonin. Briefly: Brain serotonin content in ovariectomized mice. The note with it: OVX mice. The procedure:
as §1, §2

The subject of data set [5] is ovariectomized mice. As to the kind of experiment: Gastrointestinal homeostasis and blood coagulation in ovariectomized mice. The note with it: OVX mice, 6 weeks.
In data set [6] the test system is naive mice. Briefly: Histomorphometric analysis of vertebrae of naive mice. The note with it: naive mice (FIG. 20A: 250 mg/kg/day orally, 6 weeks). The procedure:
FIG. 20. (A) Histomorphometric analysis of vertebrae of 12 week-old mice that received vehicle or LP-533,401 (250 mg/kg/day, orally) for 6 weeks. (B-E) Gastrointestinal transit rate (B), colon motility (C), efficiency of gastric emptying (D) and blood coagulation rate (E) in 18 week-old ovariectomized (OVX) mice that received orally vehicle or indicated doses of LP-533,401 for 6 weeks.
Bone histomorphometry was performed as previously described (Duey et al., 2000, Cell 100:197-207; Takeda et al., 2002, Cell 111:305-317; Parfitt et al., 1987, J. Bone Miner. Res. 2:595-610). Briefly, lumbar vertebrae were dissected, fixed for 24 hr in 10% formalin, dehydrated in graded ethanol series, and embedded in methyl methacrylate resin according to standard protocols (Parfitt et al., 1987, J. Bone Miner. Res. 2:595-610). Von Kossa/Von Gieson staining was performed using 7 μm sections for bone volume over tissue volume (BV/TV) measurement. Bone formation rate (BFR) was analyzed by the calcein double-labeling method (Ducy et al., 2000, Cell 100:197-207). Calcein (Sigma Chemical Co., St. Louis, Mo.) was dissolved in calcein buffer (0.15 M NaCl, 2% NaHCO3) and injected twice at 0.125 mg/g body weight on day 1 and 4, and then mice were killed on day 6. Unstained 4 μm sections were used for bone formation rate (BFR) measurements. […]

The mark [7] stands for this setting: 250 mg/kg/day for 4 weeks from week 2 post-ovariectomy.

As to `Nc1nc(OC(c2ccc(-c3cccc(F)c3)cc2)C(F)(F)F)cc(-c2ccc(C[C@H](N)C(=O)O)cc2)n1` (stereo partly drawn) [LP-533401, (2S)-2-amino-3-(4-(2-amino-6-(2,2,2-trifluoro-1-(3′-fluorobiphenyl-4-yl)ethoxy)pyrimidin-4-yl)phenyl)propanoic acid], in data set [1], the “Peripheral serotonin (ng/ml) (mean ± SEM)” value was 88.56 ± 12.93 ng/mL. The “serum serotonin levels, dose response” value in data set [2] (WT mice fed with increasing amounts) is reported as “dose-dependent decrease”. For the same compound, in data set [2] (WT mice, 250 mg/kg LP-533,401), the “decrease in serum serotonin levels” value was 70 % of control values. Also, the “decrease of serum serotonin levels” value in data set [3] (setting [7]) amounted to 80%. The serum serotonin levels result in data set [3] (day 1 to 28 post-ovariectomy) is listed as “decreased”. The brain serotonin content result in data set [4] (setting [7]) is “unaffected”. The brain serotonin content result in data set [4] (day 1 to 28 post-ovariectomy) is “unaffected”. Moreover, the “coagulation rates versus vehicle” value in data set [5] is listed as “similar”. For the same compound, in data set [5] (up to 250 mg/kg/day), the colonic mobility entry is “None of these parameters were affected”, the gastric emptying result is recorded as “None of these parameters were affected” and the total gastrointestinal transit entry is on record as “None of these parameters were affected”. Further, the “increase in bone mass” value in data set [6] is “also observed in naive mice”.

Source of the values: patent US8614222B2, “Methods of preventing and treating low bone mass diseases” (The Trustees of Columbia University in the City of New York, priority 2008, dated 2013).
